# Data as given in patent publication US7803815B2, “Indol-3-yl-corbonyl-piperidin-benzoimidazol derivatives” (Hoffmann-La Roche Inc., priority 2005, dated 2010).
# Molecular target: T1, human V1a receptor (Homo sapiens, UniProt P37288)
# T1 construct: expressed in transfected cells; host or cells: HEK293 cells, transiently transfected; membrane preparation
# Experiment: human V1a receptor binding, 3H-Vasopressin SPA on membranes of transfected HEK293 cells
# Settings: displacement of 4 nM 3H-Vasopressin; HEK293 cell membranes; 1 h at room temperature; Ki from IC50 by the Cheng-Prussoff equation
# Protocol: The human V1a receptor was cloned by RT-PCR from total human liver RNA. The coding sequence was subcloned in an expression vector after sequencing to confirm the identity of the amplified sequence. […] Cell membranes were prepared from HEK293 cells transiently transfected with the expression vector and grown in 20 liter fermenters with the following protocol.
# 50 g of cells are resuspended in 30 ml freshly prepared ice cold Lysis buffer (50 mM HEPES, 1 mM EDTA, 10 mM MgCl2 adjusted to pH=7.4+ complete cocktail of protease inhibitor (Roche Diagnostics)). Homogenized with Polytron for 1 min and sonicated on ice for 2×2 minutes at 80% intensity (Vibracell sonicator). The preparation is centrifuged 20 min at 500 g at 4° C., the pellet is discarded, and the supernatant centrifuged 1 hour at 43,000 g at 4° C. (19,000 rpm). The pellet is resuspended in 12.5 ml Lysis buffer+12.5 ml Sucrose 20% and homogenized using a Polytron for 1-2 min. The protein concentration is determined by the Bradford method, and aliquots are stored at −80° C. until use. For binding studies 60 mg Yttrium silicate SPA beads (Amersham) are mixed with an aliquot of membrane in binding buffer (50 mM Tris, 120 mM NaCl, 5 mM, KCl, 2 mM CaCl2, 10 mM MgCl2) for 15 minutes with mixing. 50 ul of bead/membrane mixture is then added to each well of a 96 well plate, followed by 50 ul of 4 nM 3H-Vasopressin (American Radiolabeled Chemicals). For total binding measurement, 100 ul of binding buffer are added to the respective wells, for non-specific binding 100 ul of […] cold vasopressin and for compound testing 100 ul of a serial dilution of each compound in 2% DMSO. The plate is incubated 1 h at room temperature, centrifuged 1 min at 1000 g and counted on a Packard Top-Count. Non-specific binding counts are subtracted from each well, and data is normalized to the maximum specific binding set at 100%. To calculate an IC 50, the curve is fitted using a non-linear regression model (XLfit), and the Ki is calculated using the Cheng-Prussoff equation.
# T1 sequence (P37288 whole entry): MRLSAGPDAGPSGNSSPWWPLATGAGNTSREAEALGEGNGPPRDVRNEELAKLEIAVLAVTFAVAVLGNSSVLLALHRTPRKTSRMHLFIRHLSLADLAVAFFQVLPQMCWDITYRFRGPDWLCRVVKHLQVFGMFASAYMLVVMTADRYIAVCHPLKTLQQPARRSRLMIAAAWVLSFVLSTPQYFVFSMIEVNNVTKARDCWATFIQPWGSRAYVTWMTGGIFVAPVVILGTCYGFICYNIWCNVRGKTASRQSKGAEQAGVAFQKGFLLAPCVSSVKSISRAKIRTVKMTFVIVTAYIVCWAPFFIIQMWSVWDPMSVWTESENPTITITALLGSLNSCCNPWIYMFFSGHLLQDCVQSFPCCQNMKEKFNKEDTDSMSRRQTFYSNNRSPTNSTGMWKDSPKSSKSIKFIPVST
row,Structure (SMILES),Ki [nM]
1,"CN(C)C(=O)Cn1cc(C(=O)N2CCC(n3c(=O)[nH]c4ccccc43)CC2)c2cc(Cl)c(Cl)cc21 [Example 48, 2-{5,6-Dichloro-3-[4-(2-oxo-2,3-dihydro-benzoimidazol-1-yl)-piperidine-1-carbonyl]-indol-1-yl}-N,N-dimethyl-acetamide]",3
2,"O=C(c1c[nH]c2cc(Cl)c(F)cc12)N1CCC(n2c(=O)[nH]c3ccccc32)CC1 [Example 19, 1-[1-(6-Chloro-5-fluoro-1H-indole-3-carbonyl)-piperidin-4-yl]-1,3-dihydro-benzoimidazol-2-one]",5
3,"Cc1c(C(=O)N2CCC(n3c(=O)[nH]c4ccccc43)CC2)c2ccccc2n1Cc1ccccc1 [Example 23, 1-[1-(1-Benzyl-2-methyl-1H-indole-3-carbonyl)-piperidin-4-yl]-1,3-dihydro-benzoimidazol-2-one]",6
4,"Cc1oc(-c2ccccc2)nc1C(=O)Cn1cc(C(=O)N2CCC(n3c(=O)[nH]c4ccccc43)CC2)c2ccc(Cl)cc21 [Example 45, 1-(1-{6-Chloro-1-[2-(5-methyl-2-phenyl-oxazol-4-yl)-2-oxo-ethyl]-1H-indole-3-carbonyl}-piperidin-4-yl)-1,3-dihydro-benzoimidazol-2-one]",43
5,"O=C(c1cn(C(=O)c2cccc(F)c2)c2cc(Cl)ccc12)N1CCC(n2c(=O)[nH]c3ccccc32)CC1 [Example 28, 1-{1-[6-Chloro-1-(3-fluoro-benzoyl)-1H-indole-3-carbonyl]-piperidin-4-yl}-1,3-dihydro-benzoimidazol-2-one]",12
6,"O=C(Cn1cc(C(=O)N2CCC(n3c(=O)n(CC(=O)N4CCCCC4)c4ccccc43)CC2)c2ccc(Cl)cc21)N1CCCCC1 [Example 42, 1-{1-[6-Chloro-1-(2-oxo-2-piperidin-1-yl-ethyl)-1H-indole-3-carbonyl]-piperidin-4-yl}-3-(2-oxo-2-piperidin-1-yl-ethyl)-1,3-dihydro-benzoimidazol-2-one]",18
7,"O=C(c1cn(Cc2ccccc2)c2ccccc12)N1CCC(n2c(=O)[nH]c3ccccc32)CC1 [Example 8, 1-[1-(1-Benzyl-1H-indole-3-carbonyl)-piperidin-4-yl]-1,3-dihydro-benzoimidazol-2-one]",13
8,"Cc1c(C(=O)N2CCC(n3c(N4CCCCC4)nc4ccccc43)CC2)c2ccccc2n1Cc1ccccc1 [Example 4, (1-Benzyl-2-methyl-1H-indol-3-yl)-[4-(2-piperidin-1-yl-benzoimidazol-1-yl)-piperidin-1-yl]-methanone]",6
9,"Cc1[nH]c2ccccc2c1C(=O)N1CCC(n2c(=O)[nH]c3ccccc32)CC1 [Example 10, 1-[1-(2-Methyl-1H-indole-3-carbonyl)-piperidin-4-yl]-1,3-dihydro-benzoimidazol-2-one]",39
10,"N#CCn1cc(C(=O)N2CCC(n3c(=O)[nH]c4ccccc43)CC2)c2ccc(Cl)cc21 [Example 21, {6-Chloro-3-[4-(2-oxo-2,3-dihydro-benzoimidazol-1-yl)-piperidine-1-carbonyl]-indol-1-yl}-acetonitrile]",6
11,"O=C(Cn1cc(C(=O)N2CCC(n3c(=O)[nH]c4ccccc43)CC2)c2ccc(Cl)cc21)c1cc(F)cc(F)c1 [Example 44, 1-(1-{6-Chloro-1-[2-(3,5-difluoro-phenyl)-2-oxo-ethyl]-1H-indole-3-carbonyl}-piperidin-4-yl)-1,3-dihydro-benzoimidazol-2-one]",17
12,"Cc1cc2c(C(=O)N3CCC(n4c(=O)[nH]c5ccccc54)CC3)cn(CC(=O)N(C)C)c2cc1Cl [Example 47, 2-{6-Chloro-5-methyl-3-[4-(2-oxo-2,3-dihydro-benzoimidazol-1-yl)-piperidine-1-carbonyl]-indol-1-yl}-N,N-dimethyl-acetamide]",5
13,"O=C(Cn1cc(C(=O)N2CCC(n3c(=O)[nH]c4ccccc43)CC2)c2ccc(Cl)cc21)c1cccc(F)c1 [Example 29, 1-(1-{6-Chloro-1-[2-(3-fluoro-phenyl)-2-oxo-ethyl]-1H-indole-3-carbonyl}-piperidin-4-yl)-1,3-dihydro-benzoimidazol-2-one]",22
14,"Cc1c(C(=O)N2CCC(n3c(=O)n(C)c4ccccc43)CC2)c2ccccc2n1Cc1ccccc1 [Example 9, 1-{1-[(1-benzyl-2-methyl-1H-indol-3-yl)carbonyl]piperidin-4-yl}-3-methyl-1,3-dihydro-2H-benzimidazol-2-one]",13
